Reference: EP4775570A1, “CYP11A1 INHIBITOR, PREPARATION METHOD THEREFOR AND USE THEREOF” (Shenzhen Zhongge Biological Technology Co., Ltd., priority 2023, dated 2025)

The molecules below were run against T1, CYP11A1 (Homo sapiens, UniProt P05108) (assay: NCI-H295R cellular pregnenolone biosynthesis inhibition assay (ELISA method)). Details: IC50, NCI-H295R cells, 3 days incubation, pregnenolone in cell supernatant by ELISA.
T1 construct: host or cells: NCI-H295R
T1 sequence (P05108 40-521): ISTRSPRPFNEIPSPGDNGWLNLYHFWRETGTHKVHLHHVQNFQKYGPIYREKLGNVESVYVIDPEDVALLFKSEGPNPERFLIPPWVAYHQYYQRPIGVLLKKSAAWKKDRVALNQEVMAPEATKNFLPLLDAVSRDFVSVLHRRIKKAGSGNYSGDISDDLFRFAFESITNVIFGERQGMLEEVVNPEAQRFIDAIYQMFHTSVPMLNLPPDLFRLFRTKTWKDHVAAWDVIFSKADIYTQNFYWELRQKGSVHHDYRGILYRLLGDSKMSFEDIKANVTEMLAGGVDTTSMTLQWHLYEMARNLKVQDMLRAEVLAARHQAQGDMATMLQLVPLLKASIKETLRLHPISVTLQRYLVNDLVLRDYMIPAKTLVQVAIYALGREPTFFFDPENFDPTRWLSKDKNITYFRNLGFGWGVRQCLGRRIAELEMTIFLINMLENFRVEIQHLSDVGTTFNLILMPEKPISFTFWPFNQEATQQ
Format: cell-based
Procedure: The experiment aims to test the inhibitory effect of the compounds of the present disclosure on cellular pregnenolone biosynthesis, and to assess the inhibitory effect of the compounds on CYP11A1 target based on their IC50 values.
NCI-H295R cells (MINGZHOUBIO, MZ-2138) cultured in NCI-H295R complete medium (MINGZHOUBIO, MCM-0399).
Using culture medium, NCI-H295R cells were seeded into a new 384-well cell culture plate (Greiner, 781091) at a density of 5,000 cells per well, with 45µL of cell suspension per well. The test compounds were prepared by adding 5µL of compound solution at 10× concentration to each well, to a maximum final concentration of 10µM, followed by 3× serial dilution for 10 points, with a final DMSO concentration of 0.1%, centrifuging at 1,000 rpm for 1 minute at room temperature, and then incubating in a 5% CO2 cell incubator at 37°C for 3 days.
Pregnenolone ELISA kit (Abnova, KA1912) was used for detecting the content of pregnenolone in the supernatant of cell culture. Before detection, the reagents were allowed to come back to room temperature for 1 hour. After taking out the 384-well plate, the cellular supernatant was pipetted and subjected to 5× dilution with the Assay Buffer provided in the kit. A working solution of competitive molecule and a washing solution in accordance with the instructions was prepared. 50µL of diluted cellular supernatant were pipetted into the 96-well plate provided in the ELISA kit, added with 100µL of working solution of competitive molecule per well and the plate was incubated at room temperature for 1.5 hours. After discarding the liquid, the plate was washed with 300µL of washing solution per well three times and dried. After adding 150 µL of substrate chromogenic solution per well, the plate was incubated at room temperature for 10-15 minutes. After adding 50 µL of termination solution per well, the plate was incubated at room temperature for 10-15 minutes and read for absorbance at 450nm with Envision HTS Multilabel Reader.
The wells added with 1µM ODM-208 were defined as 100% inhibition (positive control), the wells containing DMSO at a final concentration of 0.1% were defined as 0% inhibition (negative control), and inhibitory ratio = (absorbance of tested sample - average absorbance of negative control)/(average absorbance of positive control - average absorbance of negative control)*100%. The data were subjected to four-parameter fitting using GraphPad Prism to calculate the IC50 values of the compounds.

Row | SMILES | IC50 [nM]
1 | CS(=O)(=O)N1CCC(COc2cc(F)c(CN3Cc4ccccc4C3)cc2C#N)CC1 [compound 30] | < 100

Same assay, conditions: NCI-H295R cells, 3 days incubation, pregnenolone in cell supernatant by ELISA; read-out: IC50

Row | SMILES | IC50 [nM]
2 | COc1cc(CN2Cc3ccccc3C2)ncc1OCC1CCN(S(C)(=O)=O)CC1 [compound 2] | > 300
3 | CS(=O)(=O)N1CCC(CCn2ccc(CN3Cc4ccccc4C3)cc2=O)CC1 [compound 5] | > 300
4 | CCC(C)Oc1cc(CN2Cc3ccccc3C2)c(F)cc1OCC1CCN(S(C)(=O)=O)CC1 (centres unmarked) [compound 12] | < 100
5 | COc1cc(CN2Cc3ccccc3C2)c(F)cc1OCC1CCN(S(C)(=O)=O)CC1 [compound 22] | < 100
6 | COc1cc(OCC2CCN(S(C)(=O)=O)CC2)c(F)cc1CN1Cc2ccccc2C1 [compound 23] | > 300
7 | CNC(=O)c1cc(CN2Cc3ccccc3C2)ccc1OCC1CCN(S(C)(=O)=O)CC1 [compound 24] | > 300
8 | C=C(C)c1cc(CN2Cc3ccccc3C2)c(F)cc1OCC1CCN(S(C)(=O)=O)CC1 [compound 28] | < 100
9 | CC(C)c1cc(CN2Cc3ccccc3C2)c(F)cc1OCC1CCN(S(C)(=O)=O)CC1 [compound 31] | > 300
10 | CSc1cc(CN2Cc3ccccc3C2)c(F)cc1OCC1CCN(S(C)(=O)=O)CC1 [compound 33] | < 100
11 | COc1cc(CN2Cc3ccccc3C2)c(F)cc1CCC1CCN(S(C)(=O)=O)CC1 [compound 41] | 100 to 300
12 | COc1cc(CN2Cc3ccccc3C2)ccc1COC1CCN(S(C)(=O)=O)CC1 [compound 42] | > 300
13 | COc1cc(CN2Cc3ccccc3C2)ccc1/C=C/C1CCN(S(C)(=O)=O)CC1 [compound 44] | < 100
14 | COc1cc(CN2Cc3ccccc3C2)ccc1Oc1cccc2c1CCN(S(C)(=O)=O)C2 [compound 45] | > 300
15 | CC(C)(C)OC(=O)N1CCC(COc2cc(F)c(CN3Cc4ccccc4C3)cc2Br)CC1 [compound 46] | < 100
16 | CC(=O)N1CCN(c2cccc(Oc3ccc(CN4Cc5ccccc5C4)cc3F)c2)CC1 [compound 47] | > 300
17 | COc1cc(CN2Cc3ccccc3C2)ccc1CCN1CCN(S(C)(=O)=O)CC1 [compound 48] | 100 to 300
18 | CC(=O)N1CCC(CCSc2ccc(CN3Cc4ccccc4C3)cc2F)CC1 [compound 49] | < 100

Row | SMILES | IC50 [nM]
19 | COc1cc(CN2Cc3ccccc3C2)ccc1C=CC1CCN(C(=O)OC(C)(C)C)CC1 [compound 50] | < 100
20 | CC(C)(C)OC(=O)N1CCC2(CCN(c3ccc(CN4Cc5ccccc5C4)cc3F)CC2)C1 [compound 51] | > 300
21 | OCCN1CCC(COc2cc(F)c(CN3Cc4ccccc4C3)cc2Br)CC1 [compound 55] | > 300
22 | Fc1cc(OCC2CCNCC2)c(Br)cc1CN1Cc2ccccc2C1 [compound 56] | > 300
23 | CS(=O)(=O)N1CCC(CN2CCOc3cc(CN4Cc5ccccc5C4)ccc32)CC1 [compound 57] | > 300
24 | CS(=O)(=O)N1CCC2(CCN(c3ccc(CN4Cc5ccccc5C4)cc3F)CC2)C1 [compound 58] | > 300
25 | CS(=O)(=O)N1CCC(CCc2cc(F)c(CN3Cc4ccccc4C3)cc2C#N)CC1 [compound 59] | < 100
26 | CS(=O)(=O)N1CCC(C=Cc2ccc(CN3Cc4ccccc4C3)cc2C#N)CC1 [compound 60] | < 100
27 | CS(=O)(=O)N1CCC(C=Cc2cc(F)c(CN3Cc4ccccc4C3)cc2C#N)CC1 [compound 61] | 100 to 300
28 | COc1cc(CN2Cc3cccnc3C2)ccc1CCC1CCN(S(C)(=O)=O)CC1 [compound 62] | 100 to 300
29 | COc1cc(CN2Cc3ccncc3C2)ccc1CCC1CCN(S(C)(=O)=O)CC1 [compound 63] | < 100
30 | COc1c(CCC2CCN(S(C)(=O)=O)CC2)cc(F)c(CN2Cc3ccccc3C2)c1F [compound 64] | < 100
31 | COc1nc(CN2Cc3ccccc3C2)ccc1CCC1CCN(S(C)(=O)=O)CC1 [compound 65] | 100 to 300
32 | COc1cc(CN2Cc3cccc(F)c3C2)c(F)cc1CCC1CCN(S(C)(=O)=O)CC1 [compound 66] | < 100
33 | CCS(=O)(=O)N1CCC(CCc2ccc(CN3Cc4ccccc4C3)cc2OC)CC1 [compound 67] | < 100
34 | COc1cc(CN2Cc3ccccc3C2)ccc1CCC1CCN(C(=O)CC#N)CC1 [compound 68] | < 100

Further lines, results first:

Row | IC50 [nM] | SMILES
35 | > 300 | Cn1cc(OCC2CCN(S(C)(=O)=O)CC2)c(=O)cc1CN1Cc2ccccc2C1 [compound 1]
36 | 100 to 300 | COc1nc(CN2Cc3ccccc3C2)ccc1OCC1CCN(S(C)(=O)=O)CC1 [compound 4]
37 | > 300 | CS(=O)(=O)N1CCC(CCOc2cc(CN3Cc4ccccc4C3)ccn2)CC1 [compound 6]
38 | > 300 | CS(=O)(=O)N1CCC(COc2ccc(CN3Cc4ccccc4C3)cn2)CC1 [compound 7]
39 | > 300 | CS(=O)(=O)N1CCC(COc2ccc(CN3Cc4ccccc4C3)nc2)CC1 [compound 8]
40 | > 300 | CS(=O)(=O)N1CCC(COc2cnc(CN3Cc4ccccc4C3)cn2)CC1 [compound 9]
41 | < 100 | CS(=O)(=O)N1CCC(COc2ccc(CN3Cc4ccccc4C3)cc2)CC1 [compound 10]
42 | < 100 | Cc1cc(CN2Cc3ccccc3C2)ccc1OCC1CCN(S(C)(=O)=O)CC1 [compound 11]
43 | < 100 | CCc1cc(CN2Cc3ccccc3C2)ccc1OCC1CCN(S(C)(=O)=O)CC1 [compound 13]
44 | < 100 | CC(C)c1cc(CN2Cc3ccccc3C2)ccc1OCC1CCN(S(C)(=O)=O)CC1 [compound 14]
45 | < 100 | CS(=O)(=O)N1CCC(COc2ccc(CN3Cc4ccccc4C3)cc2F)CC1 [compound 15]
46 | < 100 | CS(=O)(=O)N1CCC(COc2ccc(CN3Cc4ccccc4C3)cc2Cl)CC1 [compound 16]
47 | < 100 | CS(=O)(=O)N1CCC(COc2ccc(CN3Cc4ccccc4C3)cc2Br)CC1 [compound 17]
48 | < 100 | CS(=O)(=O)N1CCC(COc2ccc(CN3Cc4ccccc4C3)cc2O)CC1 [compound 18]
49 | 100 to 300 | COc1cc(CN2Cc3ccccc3C2)ccc1OCC1CCN(S(C)(=O)=O)CC1 [compound 19]
50 | 100 to 300 | CS(=O)(=O)N1CCC(COc2ccc(CN3Cc4ccccc4C3)cc2OC(F)(F)F)CC1 [compound 20]

Row | IC50 [nM] | SMILES
51 | < 100 | CC(C)Oc1cc(CN2Cc3ccccc3C2)ccc1OCC1CCN(S(C)(=O)=O)CC1 [compound 21]
52 | < 100 | CS(=O)(=O)N1CCC(COc2cc(F)c(CN3Cc4ccccc4C3)cc2Br)CC1 [compound 25]
53 | < 100 | C=Cc1cc(CN2Cc3ccccc3C2)ccc1OCC1CCN(S(C)(=O)=O)CC1 [compound 26]
54 | 100 to 300 | C=C(C)c1cc(CN2Cc3ccccc3C2)ccc1OCC1CCN(S(C)(=O)=O)CC1 [compound 27]
55 | < 100 | C=CCOc1cc(CN2Cc3ccccc3C2)ccc1OCC1CCN(S(C)(=O)=O)CC1 [compound 29]
56 | < 100 | CS(=O)(=O)N1CCC(COc2cc(F)c(CN3Cc4ccccc4C3)cc2F)CC1 [compound 32]
57 | < 100 | CS(=O)(=O)N1CCC(COc2c(F)cc(CN3Cc4ccccc4C3)cc2Br)CC1 [compound 34]
58 | 100 to 300 | Cc1cc(CN2Cc3ccccc3C2)cc(F)c1OCC1CCN(S(C)(=O)=O)CC1 [compound 35]
59 | > 300 | CS(=O)(=O)N1CCC(COc2ccc(CN3Cc4ccccc4C3)cc2-c2ccco2)CC1 [compound 36]
60 | 100 to 300 | CS(=O)(=O)N1CCC(COc2ccc(CN3Cc4ccccc4C3)cc2-c2ncco2)CC1 [compound 37]
61 | > 300 | CS(=O)(=O)N1CCC(COc2ccc(CN3Cc4ccccc4C3)cc2-c2nccs2)CC1 [compound 38]
62 | < 100 | CS(=O)(=O)N1CCC(CCc2ccc(CN3Cc4ccccc4C3)cc2F)CC1 [compound 40]
63 | 100 to 300 | CS(=O)(=O)N1CCC(CSc2ccc(CN3Cc4ccccc4C3)cc2F)CC1 [compound 43]
64 | < 100 | CS(=O)(=O)N1CCC(COc2cc(F)c(CN3Cc4ccccc4C3)cc2O)CC1 [compound 52]
65 | < 100 | CS(=O)(=O)N1CCC(CCc2ccc(CN3Cc4ccccc4C3)cc2C#N)CC1 [compound 54]
